# Assay results: the supplement of paper PMC11061612
# Experiments:
# HCC70 (Breast Carcinoma) = assay: combination Emax (second highest fraction inhibited in the dose matrix, 72 h); higher = more inhibition; extreme values may be limits of the assay
# Method in brief: (§1)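 After 24 hours at 37°C and 5% CO2 in 1536-well plates, cells in DMEM/F12 or RPMI plus 10% FBS received two-drug dose matrices for 72 hours. Viability came from CellTiter-Glo 2.0 luminescence and was scaled as inhibition, anchored at 0 by vehicle wells and at 1 by blank wells. Combination Emax is taken as the second-highest inhibition in the matrix, and Bliss excess as the observed combination effect less EA + EB − EA·EB, with EA and EB the single-agent effects.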
# [1] = test system: CESS (Acute Myeloid Leukemia); assay: as above
# Method in brief: as §1
# [2] = test system: JHU-022 (Oral Cavity Carcinoma); assay: as above
# Method in brief: as §1
# WM1552C (Melanoma) = assay: as above
# Method in brief: as §1
# [3] = test system: 22RV1 (Prostate Carcinoma); assay: as above
# Method in brief: as §1
# [4] = test system: NCI-H1651 (Lung Adenocarcinoma); assay: as above
# Method in brief: as §1
# [5] = test system: NCI-H2228 (Lung Adenocarcinoma); assay: as above
# Method in brief: as §1
# [6] = test system: NCI-H2087 (Lung Adenocarcinoma); assay: as above
# Method in brief: as §1
# [7] = test system: A253 (Head and Neck Carcinoma); assay: as above
# Method in brief: as §1
# [8] = test system: JIMT-1 (Breast Carcinoma); assay: as above
# Method in brief: as §1
# [9] = test system: GCT (Other Solid Carcinomas); assay: as above
# Method in brief: as §1
# [10] = test system: Jurkat (T-Lymphoblastic Leukemia); assay: as above
# Method in brief: as §1
# AU565 (Breast Carcinoma) = assay: as above
# Method in brief: as §1
# NB13 (Neuroblastoma) = assay: as above
# Method in brief: as §1
# [11] = test system: CAL-27 (Oral Cavity Carcinoma); assay: as above
# Method in brief: as §1
# [12] = test system: SW620 (Colorectal Carcinoma); assay: Bliss excess, mean over the matrix (fraction); higher = more synergy
# Method in brief: as §1
# [13] = test system: huH-1 (Hepatocellular Carcinoma); assay: as above
# Method in brief: as §1
# [14] = test system: KYSE-140 (Esophageal Squamous Cell Carcinoma); assay: as above
# Method in brief: as §1
# 769-P (Kidney Carcinoma) = assay: as above
# Method in brief: as §1
# [15] = test system: SK-HEP-1 (Hepatocellular Carcinoma); assay: as above
# Method in brief: as §1
# 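For Bliss excess, mean over the matrix in this document: after 72 h of two-drug dosing.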
compound,measurement,setting,value
"NC1(C(=O)N[C@@H](CCO)c2ccc(Cl)cc2)CCN(c2ncnc3[nH]ccc23)CC1 [Capivasertib] + CC(C)n1c(=O)n(C)c2cnc3cc(F)c(-c4ccc(OCCCN5CCCCC5)nc4)cc3c21 [AZD1390] (first compound max 10 µM, 7x7, partner max 0.3 µM)",combination Emax,HCC70 (Breast Carcinoma),0.707
same,combination Emax,[1],0.456
same,combination Emax,[2],0.413
same,combination Emax,WM1552C (Melanoma),0.305
same,combination Emax,[3],0.527
same,combination Emax,[4],0.149
same,combination Emax,[5],0.46
same,combination Emax,[6],0.206
same,combination Emax,[7],0.559
same,combination Emax,[8],0.202
same,combination Emax,[9],0.6
same,combination Emax,[10],0.697
same,combination Emax,AU565 (Breast Carcinoma),0.535
same,combination Emax,NB13 (Neuroblastoma),0.254
same,combination Emax,[11],0.321
same,Bliss excess,[12],-0.0529
same,Bliss excess,[13],-0.0802
same,Bliss excess,[14],-0.033
same,Bliss excess,769-P (Kidney Carcinoma),-0.0261
same,Bliss excess,[15],-0.0321
"CN(C)CCCOc1ccc(-c2ccc3ncc4c(c3c2)n(C2CCOCC2)c(=O)n4C)cn1 [AZD0156] + O=C(c1cc(Cc2n[nH]c(=O)c3ccccc23)ccc1F)N1CCN(C(=O)C2CC2)CC1 [Olaparib] (first compound max 3 µM, partner max 3 µM)",combination Emax,HCC70 (Breast Carcinoma),0.359
same,combination Emax,[1],0.376
same,combination Emax,[2],0.62
same,combination Emax,WM1552C (Melanoma),0.324
same,combination Emax,[3],0.483
same,combination Emax,[4],0.493
same,combination Emax,[5],0.439
same,combination Emax,[6],0.12
same,combination Emax,[7],0.186
same,combination Emax,[8],0.0881
same,combination Emax,[9],0.282
same,combination Emax,[10],0.511
same,combination Emax,AU565 (Breast Carcinoma),0.631
same,combination Emax,[11],0.299
same,Bliss excess,[12],0.0953
same,Bliss excess,[13],-0.0726
same,Bliss excess,[14],-0.0069
same,Bliss excess,769-P (Kidney Carcinoma),-0.0148
same,Bliss excess,[15],0.0576
"Cc1c2c(nn1C)CSCc1cc(n(C)n1)CSc1cc(c3ccccc3c1)OCCCc1c(C(=O)O)n(C)c3c-2c(Cl)ccc13 [AZD5991] + Cc1cc2ncnn2cc1Nc1ncc2c(n1)n(C1CCOCC1)c(=O)n2C [AZD7648] (first compound max 1 µM, 7x7, partner max 10 µM)",combination Emax,HCC70 (Breast Carcinoma),0.926
same,combination Emax,[1],0.416
same,combination Emax,[2],0.245
same,combination Emax,WM1552C (Melanoma),0.71
same,combination Emax,[3],0.575
same,combination Emax,[4],0.33
same,combination Emax,[5],0.354
same,combination Emax,[6],0.187
same,combination Emax,[7],0.849
same,combination Emax,[8],0.255
same,combination Emax,[9],0.352
same,combination Emax,[10],0.951
same,combination Emax,AU565 (Breast Carcinoma),1
same,combination Emax,NB13 (Neuroblastoma),0.245
same,combination Emax,[11],0.985
same,Bliss excess,[12],-0.0421
same,Bliss excess,[13],-0.0224
same,Bliss excess,[14],-0.0345
same,Bliss excess,769-P (Kidney Carcinoma),-0.0328
same,Bliss excess,[15],-0.0463
"COc1cccc(OCCCN)c1-c1cc(Nc2cnc(C#N)cn2)n[nH]1 [Prexasertib] + O=C(c1cc(Cc2n[nH]c(=O)c3ccccc23)ccc1F)N1CCN(C(=O)C2CC2)CC1 [Olaparib] (first compound max 1 µM, 7x7, partner max 10 µM)",combination Emax,HCC70 (Breast Carcinoma),0.939
same,combination Emax,[1],0.972
same,combination Emax,[2],0.637
same,combination Emax,WM1552C (Melanoma),0.711
same,combination Emax,[3],0.516
same,combination Emax,[4],0.797
same,combination Emax,[5],0.726
same,combination Emax,[6],0.784
same,combination Emax,[7],0.794
same,combination Emax,[8],0.788
same,combination Emax,[9],0.633
same,combination Emax,[10],0.994
same,combination Emax,AU565 (Breast Carcinoma),0.735
same,combination Emax,NB13 (Neuroblastoma),0.881
same,combination Emax,[11],0.78
same,Bliss excess,[12],-0.0457
same,Bliss excess,[13],0.0434
same,Bliss excess,[14],-0.152
same,Bliss excess,769-P (Kidney Carcinoma),-0.118
same,Bliss excess,[15],-0.0127
"CCc1c2c(nc3ccc(O)cc13)-c1cc3c(c(=O)n1C2)COC(=O)[C@]3(O)CC [SN-38] + O=C(c1cc(Cc2n[nH]c(=O)c3ccccc23)ccc1F)N1CCN(C(=O)C2CC2)CC1 [Olaparib] (first compound max 0.3 µM, 7x7, partner max 10 µM)",combination Emax,HCC70 (Breast Carcinoma),0.455
same,combination Emax,[1],0.989
same,combination Emax,[2],0.764
same,combination Emax,WM1552C (Melanoma),0.609
same,combination Emax,[3],0.697
same,combination Emax,[4],0.902
same,combination Emax,[6],0.909
same,combination Emax,[7],0.938
same,combination Emax,[8],0.267
same,combination Emax,[9],0.753
same,combination Emax,AU565 (Breast Carcinoma),0.891
same,combination Emax,NB13 (Neuroblastoma),0.832
same,Bliss excess,[12],0.0524
same,Bliss excess,[13],0.0467
same,Bliss excess,769-P (Kidney Carcinoma),0.0592
same,Bliss excess,[15],0.0077
"NC1(C(=O)N[C@@H](CCO)c2ccc(Cl)cc2)CCN(c2ncnc3[nH]ccc23)CC1 [Capivasertib] + Cn1cnc2c(F)c(Nc3ccc(Br)cc3Cl)c(C(=O)NOCCO)cc21 [Selumetinib] (first compound max 10 µM, 7x7, partner max 10 µM)",combination Emax,HCC70 (Breast Carcinoma),0.908
same,combination Emax,[1],0.672
same,combination Emax,[2],0.576
same,combination Emax,WM1552C (Melanoma),0.638
same,combination Emax,[3],0.625
same,combination Emax,[4],0.177
same,combination Emax,[5],0.58
same,combination Emax,[6],0.539
same,combination Emax,[7],0.89
same,combination Emax,[8],0.407
same,combination Emax,[9],0.753
same,combination Emax,[10],0.686
same,combination Emax,AU565 (Breast Carcinoma),0.64
same,combination Emax,NB13 (Neuroblastoma),0.369
same,combination Emax,[11],0.815
same,Bliss excess,[12],0.0186
same,Bliss excess,[13],-0.0199
same,Bliss excess,[14],-0.0003
same,Bliss excess,769-P (Kidney Carcinoma),0.0062
same,Bliss excess,[15],-0.0083
